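Interpolation was linear, between the two tested concentrations surrounding the appropriate level; five concentrations were tested over 48 hours in 96-well plates. TGI: total growth inhibition.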
Legend:
Test in all cases: NCI anticancer screen, dose series, 48 h
786-0 renal = system: 786-0 renal
A498 renal = system: A498 renal
A549 NSCLC = system: A549 NSCLC
ACHN renal = system: ACHN renal
CAKI-1 renal = system: CAKI-1 renal
CCRF-CEM leukemia = system: CCRF-CEM leukemia
COLO 205 colon = system: COLO 205 colon
DLD-1 colon = system: DLD-1 colon
DMS 114 small cell lung = system: DMS 114 small cell lung
DMS 273 small cell lung = system: DMS 273 small cell lung
EKVX NSCLC = system: EKVX NSCLC
HCC-2998 colon = system: HCC-2998 colon
HCT-15 colon = system: HCT-15 colon
HL-60(TB) leukemia = system: HL-60(TB) leukemia
HOP-18 NSCLC = system: HOP-18 NSCLC
HOP-62 NSCLC = system: HOP-62 NSCLC
HOP-92 NSCLC = system: HOP-92 NSCLC
HT29 colon = system: HT29 colon
IGROV1 ovarian = system: IGROV1 ovarian
K-562 leukemia = system: K-562 leukemia
KM12 colon = system: KM12 colon
KM20L2 colon = system: KM20L2 colon
LOX IMVI melanoma = system: LOX IMVI melanoma
M19-MEL melanoma = system: M19-MEL melanoma
MALME-3M melanoma = system: MALME-3M melanoma
MOLT-4 leukemia = system: MOLT-4 leukemia
NCI-H226 lung = system: NCI-H226 lung
NCI-H23 lung = system: NCI-H23 lung
NCI-H460 lung = system: NCI-H460 lung
NCI-H522 lung = system: NCI-H522 lung
OVCAR-3 ovarian = system: OVCAR-3 ovarian
OVCAR-5 ovarian = system: OVCAR-5 ovarian
OVCAR-8 ovarian = system: OVCAR-8 ovarian
RPMI-8226 leukemia = system: RPMI-8226 leukemia
RXF 393 renal = system: RXF 393 renal
SF-268 CNS = system: SF-268 CNS
SF-295 CNS = system: SF-295 CNS
SF-539 CNS = system: SF-539 CNS
SK-MEL-2 melanoma = system: SK-MEL-2 melanoma
SK-MEL-28 melanoma = system: SK-MEL-28 melanoma
SK-MEL-5 melanoma = system: SK-MEL-5 melanoma
SK-OV-3 ovarian = system: SK-OV-3 ovarian
SN12C renal = system: SN12C renal
SNB-19 CNS = system: SNB-19 CNS
SNB-75 CNS = system: SNB-75 CNS
SNB-78 CNS = system: SNB-78 CNS
SW-620 colon = system: SW-620 colon
TK-10 renal = system: TK-10 renal
U251 CNS = system: U251 CNS
UACC-257 melanoma = system: UACC-257 melanoma
UACC-62 melanoma = system: UACC-62 melanoma
UO-31 renal = system: UO-31 renal
HCT-116 colon = system: HCT-116 colon
LXFL 529 NSCLC = system: LXFL 529 NSCLC
M14 melanoma = system: M14 melanoma
OVCAR-4 ovarian = system: OVCAR-4 ovarian
SR leukemia = system: SR leukemia

Measured: TGI

Clc1ccc(OCCSCCCCCCCCCCSCCOc2ccc(Cl)cc2)cc1
not listed: HCT-116 colon | LXFL 529 NSCLC | M14 melanoma | OVCAR-4 ovarian | SR leukemia
> 100 µM: all other assays above

CN(C)c1ccc(C(C#N)NNC(=O)Cc2ccccc2)cc1 (centres undefined)
not listed: A498 renal | EKVX NSCLC | HCC-2998 colon | SNB-19 CNS
> 100 µM: all other assays above

COP(=O)(CC(=O)C1OC(C)(C)OC1C(O)COCc1ccccc1)OC (centres undefined)
not listed: NCI-H522 lung | SK-OV-3 ovarian | SNB-19 CNS
> 100 µM: all other assays above
